These results are taken from PubChem BioAssay (NCI).

“And” between values parts separate entries of the source, which are not always exact repeats. Equal entries are not always repeated.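 Interpolation was linear, between the two tested concentrations surrounding the appropriate level; five concentrations were tested over 48 hours in 96-well plates. GI50 = concentration required for 50% inhibition of growth. TGI denotes the concentration required for complete inhibition of growth.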 A value given as a limit tells only on which side of the number the result lay.

Common to all, as to experiment: inhibition of tumour cell growth, NCI panel, 48 h
Assay [1] relates to ACHN renal.
The test system of assay [2] is SK-MEL-5 melanoma.
Assay [3] concerns NCI-H460 lung.
Assay [4] has as its system NCI-H522 lung.
Assay [5] relates to SK-MEL-28 melanoma.
Assay [6] relates to SNB-19 CNS.
The subject of assay [7] is HCT-15 colon.
For assay [8], the system named is MOLT-4 leukemia.
For assay [9], the system named is RXF 393 renal.

Take `COC(=O)C1CC(C(=O)OC)c2nc3cc(C)ccc3nc21` (stereo not drawn): the TGI in assay [1], in [2], in [3], in assay [4], in assay [5] and in assay [6] was over 100 µM throughout. Besides, the TGI in assay [7] and in [8] was over 100 µM in each case.
On to `COC(=O)C(CCS(=O)(=O)CC(=O)C(=O)Nc1cccc(C(C)=O)c1)C(=O)OC`, for which the TGI in assay [1] is over 100 µM; in assay [9], over 100 µM; in [2], over 100 µM; in [3], over 92 µM; in assay [4] it was over 100 µM; in [5], over 100 µM. Further, the TGI in assay [6], in [7] and in [8] was over 100 µM throughout.
With `[Cl][Bi]([O]c1ccccn1)[O]c1ccccn1`, the GI50 in assay [1] is over 100 µM; in assay [9] it was over 100 µM; in [2], 40.2 µM; in [5] it was over 100 µM; in [6], over 100 µM; in [7] it was over 100 µM. For the same compound, the TGI in assay [1], in [9], in assay [2], in assay [5], in [6] and in [7] was over 100 µM in each case.
Consider `CC(=O)OC1C(=O)C(O)C(C)OC1O[C@@H]1C[C@@]2(C)[C@@H]3CC=C4[C@@H](C[C@H](O)C(=O)C4(C)C)[C@]3(C)C(=O)C[C@]2(C)[C@H]1[C@@](C)(O)C(=O)/C=C/C(C)(C)O` (stereo partly drawn), for which the TGI in assay [1] was 7.38 µM; in [9], 1.43 µM; in assay [2] it was 8.4 µM; in [3], over 10 µM; in [4] it was 6.12 µM; in assay [5], 0.803 µM. Further, the figures for the TGI in [6], in [7] and in assay [8] were 4.56 µM, over 9.45 µM and over 10 µM, respectively.
As to `Clc1ccc(Cl)c2[s+]snc12`, the TGI in assay [1] was over 100 µM; in [2], over 100 µM; in assay [3], over 88.3 µM; in [4], 44 µM; in assay [5], over 100 µM; in assay [6], over 100 µM. For the same compound, the values for the TGI in assay [7] and in assay [8] were over 65.5 µM and over 100 µM, respectively.
In the case of `CCCN(CCCCC(NC(C)=O)C(=O)NCc1ccccc1)C(=O)NCCCl` (stereo not drawn), the TGI in assay [1], in assay [9], in assay [2], in [3], in assay [4] and in assay [5] was over 100 µM in each case. Further, the TGI in assay [6], in [7] and in assay [8] was over 100 µM each time.
In the case of `CSc1nc(NC2OCC(OC(C)=O)C(OC(C)=O)C2OC(C)=O)c2c(OC(C)=O)c(C)c(=O)oc2n1` (stereo not drawn), the TGI in [1], in [9], in assay [2], in [3], in assay [6] and in assay [7] was over 100 µM in each case. The TGI in [8] was over 100 µM.
With `CC(=O)Nc1ccc(C(=O)N2N=C(C)/C(=C/c3ccccc3O)C2=O)cc1`, the TGI in assay [1], in assay [2], in [3], in assay [4], in assay [5] and in assay [6] was over 100 µM each time. Moreover, the TGI in assay [7] and in assay [8] was over 100 µM in each case.
As for `Cc1c(/C=N/NS(=O)(=O)c2ccccc2)no[n+]1[O-]`, the TGI in assay [9], in assay [2], in [4], in assay [5], in assay [6] and in assay [7] was over 100 µM each time. Further, the TGI in assay [8] is over 100 µM.
Consider `Cc1cccc(-c2nc3c(C(=O)NCCN(C)C)cccc3[nH]2)c1`, for which the TGI in assay [1] was found to be 8.46 µM; in [9], 2.47 µM; in [2], 3 µM; in assay [3], 5.99 µM; in assay [5], 3.46 µM; in assay [6], 7.68 µM. The compound also came in with a TGI in assay [7] of 2.2 µM.
As to `O=C1c2cccc3cc([N+](=O)[O-])cc(c23)C(=O)N1CCNCCNCCNCCN1C(=O)c2cccc3cc([N+](=O)[O-])cc(c23)C1=O`, the GI50 is 0.0162 µM in [9], 0.0176 µM in [2] and under 0.001 µM in [4]. Also, the TGI is 0.269 µM and 0.169 µM in [9]; 1.52 µM and 0.174 µM in assay [2]; 0.0413 µM in assay [3]; 0.101 µM and 0.317 µM in assay [4]; 0.338 µM and 0.279 µM in [5]; 2.34 µM and 0.926 µM in [6]. Moreover, the TGI stood at 1.08 µM in assay [7] and 1.13 µM in [8].
On to `CC(C)N(C(=O)C12C3C4C5(C#N)C3C1(I)C5C42I)C(C)C` (stereo not drawn), for which the TGI in assay [1], in assay [9], in assay [2], in assay [3], in assay [4] and in [5] was over 100 µM throughout. For the same compound, the TGI in assay [6] was over 100 µM; in assay [7] it was over 57.7 µM; in [8] it was over 100 µM.
For `O=S(=O)([O-])c1cccc2cccc(N=Cc3ccccc3[O-])c12.O=S(=O)([O-])c1cccc2cccc(N=Cc3ccccc3[O-])c12.[O]=[U]=[O]`, the GI50 is 38.5 µM in assay [1]; 10.7 µM in assay [9]; 55.6 µM in [3]; over 100 µM in [4]; over 100 µM in assay [5]; 45.6 µM in [6]. In addition, the GI50 was 49 µM in [7] and 29 µM in assay [8]. The TGI in assay [1] is over 100 µM; in assay [9] it was 25.1 µM; in assay [3], over 100 µM; in [4] it was over 100 µM; in [5], over 100 µM; in [6] it was over 100 µM. Also, the TGI in [7] and in assay [8] was over 100 µM each time.
Consider `N#CC(C(=O)/C(=N/N)C(C#N)c1ccc(Cl)cc1)c1ccc(Cl)cc1` (stereo not drawn), for which the TGI in assay [1], in assay [9], in assay [2], in assay [3], in assay [4] and in assay [6] was over 100 µM each time. The TGI in assay [7] and in [8] was over 100 µM throughout.
